# How the values were obtained:
# [1] = Pharmacokinetic study Experiment #2, oral administration in rats; format: in vivo, rat; conditions: 50 mg EqEYP001/Kg
# Description: In a second study (Experiment #2), EYP001 and EYP001 L-lysine salt Form I in aqueous formulations (0.5% CMC, 0.25% Tween 80, water) were orally administrated at a dose of 50 mg EqEYP001/Kg in 8 male rats for each compound. Blood samples were taken at 0.25 h, 0.5 h, 1 h, 2 h, 4 h, 6 h, 8 h, 12 h, and 24 h after oral administration.
# [2] = Solubility kinetics in FeSSIF medium; format: physicochemical; conditions: for Soluble fraction: 37 ° C.; for Soluble fraction / pH: listed as EYP001 L-Lysine salt (Form I); for pH: pH printed with the soluble fraction
# Description: The solubility kinetics of the salt forms as well as the native EYP001 free acid form were determined in FaSSIF and FeSSIF media, and in a pH 4.5 acetate buffer as detailed below: The samples were prepared by adding an excess of each tested bulk (salt or native EYP001) to a given volume of test medium. […] In FaSSIF medium, the soluble concentration was assessed after 24 hours of stirring. […] At each time point, the “supernatant” was isolated and diluted in a solvent mixture allowing its injection into the chromatographic system. The concentration in solution in the test medium was determined by HPLC with external standardization.
# [3] = Thermogravimetric analysis (TGA), mass losses upon heating; format: physicochemical; conditions: listed as EYP001 L-lysine salt (sample A)
# Description: Thermogravimetric analysis was performed on a TA Instruments TGA Hi-Res 2950 apparatus equipped with an evolved gas analysis furnace. A sample was placed in an opened aluminium basket and analysed according to the following conditions: […]
# [4] = Solubility kinetics in pH 4.5 acetate buffer; format: physicochemical; conditions: for Soluble fraction: 37 ° C., listed as EYP001 L-Lysine salt (Form I)
# Description: The solubility kinetics of the salt forms as well as the native EYP001 free acid form were determined in FaSSIF and FeSSIF media, and in a pH 4.5 acetate buffer as detailed below:
# The samples were prepared by adding an excess of each tested bulk (salt or native EYP001) to a given volume of test medium. The suspension was stirred by orbital stirring over 1 hour (in both pH 4.5 acetate buffer and FeSSIF medium) or 24 hours (inFaSSIF medium) at 37° C., protected from light.
# In pH 4.5 acetate buffer, the soluble concentration was assessed after 0.5 hour and 1 hour of stirring.
# At each time point, the “supernatant” was isolated and diluted in a solvent mixture allowing its injection into the chromatographic system. The concentration in solution in the test medium was determined by HPLC with external standardization.
# [5] = Pharmacokinetic study Experiment #1, oral administration in rats; format: in vivo, rat; conditions: 50 mg EqEYP001/Kg
# Description: In a first study (Experiment #1), EYP001, EYP001 Meglumine salt, and EYP001 L-lysine salt Form I in aqueous formulations (0.5% CMC, 0.25% Tween 80, water) were orally administrated at a dose of 50 mg EqEYP001/Kg in 3 male rats for each compound. Blood samples were taken at 0.25 h, 0.5 h, 1 h, 2 h, 4 h, 6 h, 8 h, 12 h, and 24 h after oral administration.
# [6] = Dynamic Vapor Sorption (DVS) analysis (gas water sorption); format: physicochemical; conditions: for water uptake (DVS): 25° C./60% RH; for hygroscopicity (DVS): hygroscopic above 2% mass gain at 25° C./60% RH
# Description: The dynamic vapor sorption (DVS) analysis (gas water sorption) was performed on a DVS-Intrinsic incubator (SMS Ltd), equipped with DVS-Intrinsic Control Software 1.0. The sample, placed in an aluminium basket holder, was submitted to a full-cycle analysis (sorption followed by desorption cycle) under the following conditions:
# The sample was first pre-dried under a stream of dry air until a stabilized sample mass was observed. Then, the relative humidity was increased by 5% increments. At each step, the sample mass was allowed to increase until equilibrium is reached (according to a given dm/dt target), and then a new relative humidity rise occurred. Relative humidity was ramped up to 95%. After equilibration at this point, desorption began in a similar stepwise manner, with sample mass decrease again allowed to stabilize after each incremental humidity decrease.
# With both segments of the above-described method, the sample mass recording allowed describing of the whole vapor water sorption/desorption behaviour versus relative humidity.
# [7] = Pharmacokinetic study Experiment #3, oral administration in rats; format: in vivo, rat; conditions: 10 mg EqEYP001/Kg
# Description: In a third study (Experiment #3), EYP001 and EYP001 L-lysine salt Form I in aqueous formulations (0.5% CMC, 0.25% Tween 80, water) were orally administrated at a dose of 10 mg EqEYP001/Kg in 6-8 male rats for each compound. Blood samples were taken at 0.25 h, 0.5 h, 1 h, 2 h, 4 h, 6 h, 8 h, 12 h, and 24 h after oral administration.
# [8] = male rats, versus EYP001 free acid
# [9] = listed as EYP001 L-lysine salt (Sample A)
# [10] = listed as EYP001 L-lysine salt (form I)
smiles,measurement,setting,value
"NCCCC[C@H](N)C(=O)O.O=C(O)c1cc2c(Cl)c(N3CCN(S(=O)(=O)c4c(Cl)cccc4Cl)CC3)ccc2o1 [EYP001 L-lysine salt Form I, L-lysine salt of 4-chloro-5-[4-(2,6-dichlorophenyl)sulfonylpiperazin-1-yl]-1-benzofuran-2-carboxylic acid]",Mean AUC0-24,"[1]; male rats, aqueous formulation",42.5 µg·h/mL
same,Mean Cmax,"[1]; male rats, aqueous formulation",7.87 µg/mL
same,% increase/EYP001 (AUC0-24),[1]; [8],+47%
same,% increase/EYP001 (Cmax),[1]; [8],+41%
same,exposure and C max compared to EYP001 free acid,[1]; rat,superiority
same,solubility compared to EYP001 free acid and EYP001 Potassium salt,[2]; 37° C.,higher solubility
same,Soluble fraction,[2]; after 0.5 h,0.44 mg/mL of EYP001
same,Soluble fraction,[2]; after 1 h,0.46 mg/mL of EYP001
same,pH,[2]; after 0.5 h,(pH = 5.0)
same,pH,[2]; after 1 h,(pH = 5.0)
same,onset temperature of thermal decomposition (TGA),"[3]; heater ramp 10 ° C./min, nitrogen",254 °C
same,mass loss before the beginning of thermal decomposition (TGA),[3]; upon heating,no mass loss
same,"solubility compared to EYP001 free acid, Benethamine, Zinc, Benzathine and Ethylene diamine salts",[4]; 37° C.,much higher solubility
same,Soluble fraction,[4]; after 0.5 h,0.010 mg/mL of EYP001
same,Soluble fraction,[4]; after 1 h,0.006 mg/mL of EYP001
same,Mean AUC0-24,"[5]; male rats, aqueous formulation",60.011 µg·h/mL
same,Mean Cmax,"[5]; male rats, aqueous formulation",8.827 µg/mL
same,% increase/EYP001 (AUC0-24),[5]; [8],+15%
same,% increase/EYP001 (Cmax),[5]; [8],+26%
same,C max compared to EYP001 free acid and EYP001 Meglumine salt,[5]; rat,higher C max
same,exposure (AUC0-24) compared to EYP001 free acid and EYP001 Meglumine salt,[5]; rat,superior exposure
same,mass loss during preliminary drying phase,"[6]; 25° C./0% RH before sorption, listed as EYP001 L-lysine salt (Sample A)",no significant mass loss
same,water uptake (DVS),[6]; [9],0.4%
same,water uptake (DVS),[6]; [10],0.4%
same,water uptake upon sorption (DVS),"[6]; 25° C./95% RH, listed as EYP001 L-lysine salt (Sample A)",0.8%
same,final sample mass after full sorption-desorption cycle versus initial mass,[6]; back to 0% RH,roughly the same as the initial one
same,hygroscopicity (DVS),[6]; [9],non-hygroscopic
same,hygroscopicity (DVS),[6]; [10],non-hygroscopic
same,Mean AUC0-24,"[7]; male rats, aqueous formulation",7.311 µg·h/mL
same,Mean Cmax,"[7]; male rats, aqueous formulation",2.947 µg/mL
same,% increase/EYP001 (AUC0-24),[7]; [8],+84%
same,% increase/EYP001 (Cmax),[7]; [8],+118%
same,exposure and C max compared to EYP001 free acid,[7]; rat,superiority
same,variability of the C max (CV %) compared to EYP001 free acid,[7]; rat,strongly reduced
same,variability of the exposure (CV %) compared to EYP001 free acid,[7]; rat,strongly reduced

# Source: patent US20250019370A1, “L-LYSINE SALT OF 4-CHLORO-5-[4-(2,6-DICHLOROPHENYL)SULFONYLPIPERAZIN-1-YL]-1-BENZOFURAN-2-CARBOXYLIC ACID AND VARIOUS FORMS THEREOF” (ENYO PHARMA, priority 2023, published 2025)
